Numbers after ± are expanded uncertainties.
Experiment: activity coefficient (dimensionless); of the first substance listed, at infinite dilution; xn = mol fraction of the nth substance listed
Details: Liquid, Chromatography, x1 = 0

Compound	activity coefficient (323.15 K)	activity coefficient (333.15 K)	activity coefficient (343.15 K)
CCCCCCCC [octane] + CN(C)c1cc[n+](COCCCOC[n+]2ccc(N(C)C)cc2)cc1.O=S(=O)([N-]S(=O)(=O)C(F)(F)F)C(F)(F)F.O=S(=O)([N-]S(=O)(=O)C(F)(F)F)C(F)(F)F	37.9 ± 2.6	34.5 ± 2.4	30 ± 2
CCCCCCCC [octane] + Cn1cc[n+](COCCCOC[n+]2ccn(C)c2)c1.O=S(=O)([N-]S(=O)(=O)C(F)(F)F)C(F)(F)F.O=S(=O)([N-]S(=O)(=O)C(F)(F)F)C(F)(F)F	60.4 ± 4.1	60.6 ± 4.2	38.4 ± 2.6
CCCC(C)=O [pentan-2-one] + CCCCCCCCn1cc[n+](COCCC)c1C.N#C[N-]C#N	0.95 ± 0.06	0.96 ± 0.06	0.98 ± 0.06
CCCC(C)=O [pentan-2-one] + CCCCCCCCn1cc[n+](COCCC)c1C.O=S(=O)([N-]S(=O)(=O)C(F)(F)F)C(F)(F)F	0.48 ± 0.04	0.48 ± 0.04	0.48 ± 0.04
CCCC(C)=O [pentan-2-one] + CCCCCCCCn1cc[n+](COCCCOC[n+]2ccn(CCCCCCCC)c2C)c1C.N#C[N-]C#N.N#C[N-]C#N	0.8 ± 0.05	0.8 ± 0.05	0.81 ± 0.05
CCCC(C)=O [pentan-2-one] + CCCCCCCCn1cc[n+](COCCCOC[n+]2ccn(CCCCCCCC)c2C)c1C.O=S(=O)([N-]S(=O)(=O)C(F)(F)F)C(F)(F)F.O=S(=O)([N-]S(=O)(=O)C(F)(F)F)C(F)(F)F	0.29 ± 0.03	0.29 ± 0.03	0.3 ± 0.03
CCCC(C)=O [pentan-2-one] + CCCOC[n+]1ccc(N(C)C)cc1.O=S(=O)([N-]S(=O)(=O)C(F)(F)F)C(F)(F)F	0.75 ± 0.05	0.78 ± 0.05	0.78 ± 0.05
CCCC(C)=O [pentan-2-one] + CCCOC[n+]1ccn(C)c1.F[B-](F)(F)F	3.32 ± 0.23	3.33 ± 0.23	3.31 ± 0.23
CCCC(C)=O [pentan-2-one] + CCCOC[n+]1ccn(C)c1.N#C[N-]C#N	2.24 ± 0.15	2.27 ± 0.15	2.32 ± 0.16
CCCC(C)=O [pentan-2-one] + CCCOC[n+]1ccn(C)c1.O=S(=O)([N-]S(=O)(=O)C(F)(F)F)C(F)(F)F	0.72 ± 0.05	0.72 ± 0.05	0.73 ± 0.05
CCCC(C)=O [pentan-2-one] + CCCOC[n+]1ccn(Cc2ccccc2)c1.F[B-](F)(F)F	1.79 ± 0.12	1.76 ± 0.12	1.82 ± 0.12
CCCC(C)=O [pentan-2-one] + CCCOC[n+]1ccn(Cc2ccccc2)c1.N#C[N-]C#N	1.45 ± 0.1	1.51 ± 0.1	1.51 ± 0.1
CCCC(C)=O [pentan-2-one] + CCCOC[n+]1ccn(Cc2ccccc2)c1.O=S(=O)([N-]S(=O)(=O)C(F)(F)F)C(F)(F)F	0.46 ± 0.04	0.42 ± 0.04	0.4 ± 0.03
CCCC(C)=O [pentan-2-one] + CN(C)c1cc[n+](COCCCOC[n+]2ccc(N(C)C)cc2)cc1.O=S(=O)([N-]S(=O)(=O)C(F)(F)F)C(F)(F)F.O=S(=O)([N-]S(=O)(=O)C(F)(F)F)C(F)(F)F	0.69 ± 0.05	0.7 ± 0.05	0.71 ± 0.05
CCCC(C)=O [pentan-2-one] + Cn1cc[n+](COCCCOC[n+]2ccn(C)c2)c1.N#C[N-]C#N.N#C[N-]C#N	3.5 ± 0.24	3.5 ± 0.24	3.49 ± 0.24
CCCC(C)=O [pentan-2-one] + Cn1cc[n+](COCCCOC[n+]2ccn(C)c2)c1.O=S(=O)([N-]S(=O)(=O)C(F)(F)F)C(F)(F)F.O=S(=O)([N-]S(=O)(=O)C(F)(F)F)C(F)(F)F	0.62 ± 0.04	0.65 ± 0.04	0.63 ± 0.04
CCCC(C)=O [pentan-2-one] + N#C[N-]C#N.N#C[N-]C#N.c1ccc(Cn2cc[n+](COCCCOC[n+]3ccn(Cc4ccccc4)c3)c2)cc1	3.1 ± 0.21	3.05 ± 0.21	3.08 ± 0.21
CCC(=O)CC [pentan-3-one] + CCCCCCCCn1cc[n+](COCCC)c1C.N#C[N-]C#N	0.88 ± 0.06	0.89 ± 0.06	0.91 ± 0.06
CCC(=O)CC [pentan-3-one] + CCCCCCCCn1cc[n+](COCCC)c1C.O=S(=O)([N-]S(=O)(=O)C(F)(F)F)C(F)(F)F	0.45 ± 0.04	0.45 ± 0.04	0.47 ± 0.04
CCC(=O)CC [pentan-3-one] + CCCCCCCCn1cc[n+](COCCCOC[n+]2ccn(CCCCCCCC)c2C)c1C.N#C[N-]C#N.N#C[N-]C#N	0.75 ± 0.05	0.76 ± 0.05	0.78 ± 0.05
CCC(=O)CC [pentan-3-one] + CCCCCCCCn1cc[n+](COCCCOC[n+]2ccn(CCCCCCCC)c2C)c1C.O=S(=O)([N-]S(=O)(=O)C(F)(F)F)C(F)(F)F.O=S(=O)([N-]S(=O)(=O)C(F)(F)F)C(F)(F)F	0.28 ± 0.03	0.28 ± 0.03	0.29 ± 0.03
CCC(=O)CC [pentan-3-one] + CCCOC[n+]1ccc(N(C)C)cc1.O=S(=O)([N-]S(=O)(=O)C(F)(F)F)C(F)(F)F	0.72 ± 0.05	0.75 ± 0.05	0.76 ± 0.05

Compound	activity coefficient (323.15 K)	activity coefficient (333.15 K)	activity coefficient (343.15 K)
CCC(=O)CC [pentan-3-one] + CCCOC[n+]1ccn(C)c1.F[B-](F)(F)F	3.34 ± 0.23	3.36 ± 0.23	3.41 ± 0.23
CCC(=O)CC [pentan-3-one] + CCCOC[n+]1ccn(C)c1.N#C[N-]C#N	2.14 ± 0.15	2.19 ± 0.15	2.29 ± 0.16
CCC(=O)CC [pentan-3-one] + CCCOC[n+]1ccn(C)c1.O=S(=O)([N-]S(=O)(=O)C(F)(F)F)C(F)(F)F	0.68 ± 0.05	0.69 ± 0.05	0.72 ± 0.05
CCC(=O)CC [pentan-3-one] + CCCOC[n+]1ccn(Cc2ccccc2)c1.F[B-](F)(F)F	1.73 ± 0.12	1.74 ± 0.12	1.75 ± 0.12
CCC(=O)CC [pentan-3-one] + CCCOC[n+]1ccn(Cc2ccccc2)c1.N#C[N-]C#N	1.33 ± 0.09	1.4 ± 0.09	1.43 ± 0.09
CCC(=O)CC [pentan-3-one] + CCCOC[n+]1ccn(Cc2ccccc2)c1.O=S(=O)([N-]S(=O)(=O)C(F)(F)F)C(F)(F)F	0.43 ± 0.04	0.43 ± 0.04	0.44 ± 0.04
CCC(=O)CC [pentan-3-one] + CN(C)c1cc[n+](COCCCOC[n+]2ccc(N(C)C)cc2)cc1.O=S(=O)([N-]S(=O)(=O)C(F)(F)F)C(F)(F)F.O=S(=O)([N-]S(=O)(=O)C(F)(F)F)C(F)(F)F	0.67 ± 0.05	0.69 ± 0.05	0.7 ± 0.05
CCC(=O)CC [pentan-3-one] + Cn1cc[n+](COCCCOC[n+]2ccn(C)c2)c1.N#C[N-]C#N.N#C[N-]C#N	3.39 ± 0.23	3.49 ± 0.24	3.46 ± 0.24
CCC(=O)CC [pentan-3-one] + Cn1cc[n+](COCCCOC[n+]2ccn(C)c2)c1.O=S(=O)([N-]S(=O)(=O)C(F)(F)F)C(F)(F)F.O=S(=O)([N-]S(=O)(=O)C(F)(F)F)C(F)(F)F	0.6 ± 0.04	0.63 ± 0.04	0.63 ± 0.04
CCC(=O)CC [pentan-3-one] + N#C[N-]C#N.N#C[N-]C#N.c1ccc(Cn2cc[n+](COCCCOC[n+]3ccn(Cc4ccccc4)c3)c2)cc1	2.88 ± 0.2	2.89 ± 0.2	2.91 ± 0.2
CCCO [propan-1-ol] + CCCCCCCCn1cc[n+](COCCC)c1C.N#C[N-]C#N	0.4 ± 0.03	0.4 ± 0.03	0.39 ± 0.03
CCCO [propan-1-ol] + CCCCCCCCn1cc[n+](COCCC)c1C.O=S(=O)([N-]S(=O)(=O)C(F)(F)F)C(F)(F)F	1.16 ± 0.07	1.06 ± 0.07	0.98 ± 0.06
CCCO [propan-1-ol] + CCCCCCCCn1cc[n+](COCCCOC[n+]2ccn(CCCCCCCC)c2C)c1C.N#C[N-]C#N.N#C[N-]C#N	0.32 ± 0.03	0.32 ± 0.03	0.31 ± 0.03
CCCO [propan-1-ol] + CCCCCCCCn1cc[n+](COCCCOC[n+]2ccn(CCCCCCCC)c2C)c1C.O=S(=O)([N-]S(=O)(=O)C(F)(F)F)C(F)(F)F.O=S(=O)([N-]S(=O)(=O)C(F)(F)F)C(F)(F)F	0.72 ± 0.05	0.65 ± 0.04	0.77 ± 0.05
CCCO [propan-1-ol] + CCCOC[n+]1ccc(N(C)C)cc1.O=S(=O)([N-]S(=O)(=O)C(F)(F)F)C(F)(F)F	1.93 ± 0.13	1.72 ± 0.12	1.53 ± 0.1
CCCO [propan-1-ol] + CCCOC[n+]1ccn(C)c1.F[B-](F)(F)F	3.1 ± 0.21	2.79 ± 0.19	2.53 ± 0.17
CCCO [propan-1-ol] + CCCOC[n+]1ccn(C)c1.N#C[N-]C#N	0.97 ± 0.06	0.95 ± 0.06	0.92 ± 0.06
CCCO [propan-1-ol] + CCCOC[n+]1ccn(C)c1.O=S(=O)([N-]S(=O)(=O)C(F)(F)F)C(F)(F)F	1.86 ± 0.13	1.66 ± 0.11	1.5 ± 0.1
CCCO [propan-1-ol] + CCCOC[n+]1ccn(Cc2ccccc2)c1.F[B-](F)(F)F	2.15 ± 0.15	1.92 ± 0.13	1.78 ± 0.12
CCCO [propan-1-ol] + CCCOC[n+]1ccn(Cc2ccccc2)c1.N#C[N-]C#N	0.84 ± 0.05	0.7 ± 0.05	0.69 ± 0.05
CCCO [propan-1-ol] + CN(C)c1cc[n+](COCCCOC[n+]2ccc(N(C)C)cc2)cc1.O=S(=O)([N-]S(=O)(=O)C(F)(F)F)C(F)(F)F.O=S(=O)([N-]S(=O)(=O)C(F)(F)F)C(F)(F)F	1.51 ± 0.1	1.37 ± 0.09	1.22 ± 0.08
CCCO [propan-1-ol] + Cn1cc[n+](COCCCOC[n+]2ccn(C)c2)c1.N#C[N-]C#N.N#C[N-]C#N	1.22 ± 0.08	1.17 ± 0.07	1.1 ± 0.07

Reference: the NIST ThermoML archive (doi:10.1016/j.fluid.2014.11.020)
